The conditions of series [1]: human, in vivo. The procedure: Trimethylsilyl derivatives of nucleosides were synthesized by incubation of lyophilized hydrolysates with BSTFA:pyridine (4:1) at 100° C. for 1 hour. Samples were analyzed by GC-MS (DB-17 HT column, J&W Scientific, Folsom Calif.; HP 5890 GC and 5971MS, Hewlett Packard, Palo Alto, Calif.). Abundances of ions at mass to charge ratio (m/z) 467 and 469 were quantified under selected ion recording mode for deoxyadenosine (dA); and m/z 555 and 557 were monitored for deoxyguanosine (dG). Under the derivatization and GC-MS conditions employed, the purines (dA and dG) gave larger peaks (FIG. 3) than the pyrimidines, resulting in greater sensitivity and a higher signal-to-noise ratio. […]
One subject was a healthy normal volunteer and the other three were HIV-seropositive men, who were participating in lymphocyte kinetic studies (blood CD4 T cell counts in the range 215-377/mm^3). […] Granulocyte DNA was extracted, hydrolyzed to nucleosides and analyzed by GC-MS, as described in Section 6.1.2, supra. […]
All were clinically stable at the time of investigation. […] Granulocytes were isolated and dA enrichment measured from DNA. […]
48-hr constant intravenous infusions of labeled glucose were performed to ensure a representative time sample of T cell kinetics. Enrichments of plasma glucose were measured every 12 hr during the infusion. […]

Series [2] is described as follows: Plasma glucose enrichment during labeled glucose infusion in rats. In kind it is in vivo. Here is the method:
Trimethylsilyl derivatives of nucleosides were synthesized by incubation of lyophilized hydrolysates with BSTFA:pyridine (4:1) at 100° C. for 1 hour. Samples were analyzed by GC-MS (DB-17 HT column, J&W Scientific, Folsom Calif.; HP 5890 GC and 5971MS, Hewlett Packard, Palo Alto, Calif.). Abundances of ions at mass to charge ratio (m/z) 467 and 469 were quantified under selected ion recording mode for deoxyadenosine (dA); and m/z 555 and 557 were monitored for deoxyguanosine (dG). Under the derivatization and GC-MS conditions employed, the purines (dA and dG) gave larger peaks (FIG. 3) than the pyrimidines, resulting in greater sensitivity and a higher signal-to-noise ratio. To measure the enrichment of glucose, plasma or culture media were deproteinized with perchloric acid and passed through anion and cation exchange columns (Neese et al., 1995, J. Biol. Chem. 270:14452-14463). The glucose penta-acetate derivative was formed by incubation with acetic anhydride in pyridine. GC-MS analysis was performed as described previously (Neese et al., 1995, J. Biol. Chem […]), monitoring m/z 331 and 333 under selected ion recording.
Four rats (approximately 250 g) were infused with labeled glucose. […] DNA was extracted from cell preparations, then hydrolyzed to nucleosides and analyzed by GC-MS (FIG. 2). […]

For a further series, the system named is HIV-1. As to conditions: Patient #6, previous protease inhibitor.
The test system of series [3] is hepatocyte cell line, HepG2. Kind of series: Label incorporation into dA of DNA in cultured HepG2 cells (GC-MS, cell counting). In kind it is cell-based. As to conditions: HepG2, unlabeled glycerol. The procedure:
(§1) DNA was prepared from cells or tissues by phenol-chloroform-isoamyl alcohol extraction of cell suspensions or tissue homogenates. Yield and purity were confirmed by optical density. After heat denaturation, DNA was hydrolyzed enzymatically to deoxyribonucleosides by sequential digestion with nuclease P1, phosphodiesterase, and alkaline phosphatase, as described by Crain et al. (Crain, 1990, Methods Enzymol. 193:782-790). Nucleoside yield and purity were confirmed by HPLC using a C-18 column and water-methanol gradient (Shigenaga et al., 1994, Methods Enzymol. 234:16-33).
(§2) Trimethylsilyl derivatives of nucleosides were synthesized by incubation of lyophilized hydrolysates with BSTFA:pyridine (4:1) at 100° C. for 1 hour. Samples were analyzed by GC-MS (DB-17 HT column, J&W Scientific, Folsom Calif.; HP 5890 GC and 5971MS, Hewlett Packard, Palo Alto, Calif.). Abundances of ions at mass to charge ratio (m/z) 467 and 469 were quantified under selected ion recording mode for deoxyadenosine (dA); and m/z 555 and 557 were monitored for deoxyguanosine (dG). […]
(§3) Two cell lines were used: a hepatocyte cell line, HepG2, and a lymphocytic cell line, H9, which is a CD4^+ T cell line. […] In both cases the number of cells present was measured by counting an aliquot on a Coulter ZM0901 cell counter. […]

The subject of series [4] is lymphocytic cell line, H9. Description: Label incorporation into dA of DNA in cultured H9 cells (GC-MS, cell counting). It is filed as cell-based. As to conditions: H9, unlabeled glycerol. Here is the method:
as §1, §2, §3

Three molecules from patent US6808875B2, “Methods for screening cellular proliferation using isotope labels” (priority 1997, dated 2004) can be followed below.

Take `[2H]C([2H])(O)[C@H]1OC(O)[C@H](O)[C@@H](O)[C@@H]1O` (stereo partly drawn) [[6,6-^2H2] glucose]: the “Plasma enrichment after discontinuing the intravenous infusion, % of steady-state values” in series [1] is recorded as under 10%. In series [2] (rat, in vivo), the “Mean glucose enrichment for the 24 hr infusion period” value was determined as 9.2±0.6%. Besides, the “Plasma glucose enrichment at sacrifice” value in series [2] (rats (n=4), iv infusion approximately 24 hours, fasting) is on record as 13.2±0.9%.

Turning to `CC(C)(C)NC(=O)[C@@H]1CN(Cc2cccnc2)CCN1C[C@@H](O)C[C@@H](Cc1ccccc1)C(=O)N[C@H]1c2ccccc2C[C@H]1O` [indinavir], the “viral load at failure” value with HIV-1 is 28,000.

Turning to `OCC(O)CO` [unlabeled glycerol, glycerol], the “Reduction of incorporation into dA from 10% [6,6-^2H2] glucose” value in series [3] worked out at 7%. For the same molecule, the “Effect on labeling from 10% [6,6-^2H2] glucose” value in series [4] is “did not affect labeling”.
